Results taken from patent US11052092B2, “N-{[2-(piperidin-1-yl)phenyl](phenyl)methyl}-2-(3-oxo-3,4-dihydro-2H-1,4-benzoxazin-7-yl)acetamide derivatives and related compounds as ROR-gamma modulators for treating autoimmune diseases” (Genfit, priority 2017, dated 2021).
pIC50: −log10 of the molar value. Where a name gives a salt, the structure may show the parent alone.

What was measured:
[1] = test system: Murine EL-4 lymphoma cell line overexpressing human RORγt; experiment: IL-17 secretion from EL4 murine lymphoma; format: cell-based; conditions: Mus musculus; human RORγt-transfected EL4 cells, PMA (10 ng/mL) and ionomycin (1 μM), 24 h; read-out: IC50, IL-17 secretion inhibition
Experimental: Murine EL-4 lymphoma cell line overexpressing human RORγt was used in this functional assay to assess compound ability to inhibit IL-17 cytokine secretion.
EL-4 cells are maintained in a standard culture medium RPMI supplemented with 10% fetal calf serum, 1% sodium pyruvate, 1% essential amino acids and 1% antibiotics at 37° C. in a humidified atmosphere of 5% CO02 and 95% air. Culture medium was changed every 2 days. EL4 cells were transfected with a plasmid encoding hRORγt (sequence identical to published sequence NM 001001523). […] Briefly, 1 μg of DNA/1 million cells was served to transfect EL-4 cells. Cell/DNA suspension was transferred into certified cuvette and the electroporation of RORγt plasmid was carried out using appropriate Nucleofector® program.
Cells were seeded in 96 well plates at a density of 150000 cells/I well then treated with compounds of this invention at indicated concentrations and incubated for 24 hours at 37° C. in a humidified atmosphere of 5% C02 and 95% air. EL-4 cells were pretreated with test compounds (RORγ modulators) and stimulated with PMA (10 ng/mL) and ionomycin (1 μM final concentration) in the presence of test compound concentrations for additional 24 h at 37° C. in a humidified atmosphere of 5% C02 and 95% air. Subsequently, supernatants were collected (after centrifugation at 300 g for 10 minutes) to determine the concentrations of IL-17 by HTRF (CisBio, France) or ELISA (R&D Systems Europe) according to the manufacturer's protocols.

human RORγt = molecular target: T1, human RORγt (Homo sapiens, UniProt P51449); experiment: RORE Luciferase/RORγt transactivation assay; format: cell-based; conditions: COS-7 cells transfected with human IL-17 promoter luciferase reporter and RORγt plasmid; 20 h with compound; read-out: IC50, RORγt activity inhibition
T1 construct: the full-length cDNA of human RORγt; expressed in transfected cells; host or cells: COS-7 (monkey kidney)
T1 sequence (P51449 1-497 isoform P51449-2): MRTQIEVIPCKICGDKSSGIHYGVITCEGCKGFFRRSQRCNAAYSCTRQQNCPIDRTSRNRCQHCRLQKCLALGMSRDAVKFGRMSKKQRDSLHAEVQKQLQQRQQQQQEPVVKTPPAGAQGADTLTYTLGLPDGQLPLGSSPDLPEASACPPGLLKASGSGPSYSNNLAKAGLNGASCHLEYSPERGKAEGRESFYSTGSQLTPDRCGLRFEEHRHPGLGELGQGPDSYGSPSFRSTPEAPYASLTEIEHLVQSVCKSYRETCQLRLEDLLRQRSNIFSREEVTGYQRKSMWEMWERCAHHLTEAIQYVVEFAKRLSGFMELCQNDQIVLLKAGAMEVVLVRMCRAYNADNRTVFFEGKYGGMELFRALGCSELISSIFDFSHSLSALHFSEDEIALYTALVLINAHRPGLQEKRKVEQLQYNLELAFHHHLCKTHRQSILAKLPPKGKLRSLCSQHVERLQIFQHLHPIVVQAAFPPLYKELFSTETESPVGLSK
How it was run: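 COS-7 cells were transiently co-transfected with a human IL-17 promoter (RORE/CNS)–luciferase reporter and a RORγt expression plasmid, then seeded at 10000 cells/well in serum-free, phenol red-free DMEM. Compounds were added at 0.3% DMSO final. Luciferase was read with Steady-Glo, and IC50 and Emax were derived.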

Cc1ccc(C(NC(=O)C2(c3ccc4[nH]ccc4c3)CC2)c2ccc(C)o2)c(C)c1 (stereo not shown) [Cpd. 108, N-[(2,4-dimethylphenyl)(5-methylfuran-2-yl)methyl]-1-(1H-indol-5-yl)cyclopropane-1-carboxamide]
pIC50 [1]: > 7.00 | pIC50 (human RORγt): 7.00 to 8.00

Cc1ccc(C(NC(=O)C2(c3ccc4c(c3)CN(S(C)(=O)=O)C4)CC2)c2ccc(C)o2)c(N(C)C)c1 (stereo not shown) [Cpd. 76, N-{[2-(dimethylamino)-4-methylphenyl](5-methylfuran-2-yl)methyl}-1-(2-methanesulfonyl-2,3-dihydro-1H-isoindol-5-yl)cyclopropane-1-carboxamide]
pIC50 [1]: 6.00 to 7.00 | pIC50 (human RORγt): 7.00 to 8.00

Cc1ccc(C(NC(=O)Cc2ccc3c(c2)CN(S(C)(=O)=O)C3)c2ccc(Cl)o2)c(N2CCCCC2)c1 (stereo not shown) [Cpd. 79, N-[(5-chlorofuran-2-yl)[4-methyl-2-(piperidin-1-yl)phenyl]methyl]-2-(2-methanesulfonyl-2,3-dihydro-1H-isoindol-5-yl)acetamide]
pIC50 [1]: 6.00 to 7.00 | pIC50 (human RORγt): 7.00 to 8.00

CNS(=O)(=O)c1c[nH]c2ccc(CC(=O)NC(c3ccc(C)o3)c3ccc(C)cc3N3CCCCC3)cc12 (stereo not shown) [Cpd. 115, N-{[4-methyl-2-(piperidin-1-yl)phenyl](5-methylfuran-2-yl)methyl}-2-[3-(methylsulfamoyl)-1H-indol-5-yl]acetamide]
pIC50 [1]: 6.00 to 7.00 | pIC50 (human RORγt): 7.00 to 8.00

Cc1ccc(C(NC(=O)Cc2ccc3[nH]c(N4CCOCC4)nc3c2)c2ccc(C)o2)c(N2CCCCC2)c1 (stereo not shown) [Cpd. 93, N-{[4-methyl-2-(piperidin-1-yl)phenyl](5-methylfuran-2-yl)methyl}-2-[2-(morpholin-4-yl)-1H-1,3-benzodiazol-5-yl]acetamide]
pIC50 [1]: > 7.00 | pIC50 (human RORγt): 7.00 to 8.00

Cc1ccc(C(NC(=O)Cc2ccc3c(c2)CS(=O)(=O)C3)c2ccc(C)o2)c(N2CCCCC2)c1 (stereo not shown) [Cpd. 78, 2-(2,2-dioxo-1,3-dihydro-2-benzothiophen-5-yl)-N-{[4-methyl-2-(piperidin-1-yl)phenyl](5-methylfuran-2-yl)methyl}acetamide]
pIC50 [1]: 6.00 to 7.00 | pIC50 (human RORγt): 7.00 to 8.00

Cc1ccc(C(NC(=O)C2(c3ccc4c(c3)CS(=O)(=O)C4)CC2)c2ccc(Cl)o2)c(C)c1 (stereo not shown) [Cpd. 72, N-[(5-chlorofuran-2-yl)(2,4-dimethylphenyl)methyl]-1-(2,2-dioxo-1,3-dihydro-2-benzothiophen-5-yl)cyclopropane-1-carboxamide]
pIC50 [1]: 6.00 to 7.00 | pIC50 (human RORγt): 7.00 to 8.00

Cc1ccc(C(NC(=O)Cc2ccc3c(c2)C(=NO)C(=O)N3)c2ccc(C)o2)c(N2CCCCC2)c1 (stereo not shown) [Cpd. 42, 2-[3-(hydroxyimino)-2-oxo-2,3-dihydro-1H-indol-5-yl]-N-{[4-methyl-2-(piperidin-1-yl)phenyl](5-methylfuran-2-yl)methyl}acetamide]
pIC50 [1]: 6.00 to 7.00 | pIC50 (human RORγt): 6.00 to 7.00

Cc1ccc(C(NC(=O)Cc2ccc3[nH]cc(CCS(C)(=O)=O)c3c2)c2ccc(Cl)o2)c(N2CCCC2)c1 (stereo not shown) [Cpd. 112, N-[(5-chlorofuran-2-yl)[4-methyl-2-(pyrrolidin-1-yl)phenyl]methyl]-2-[3-(2-methanesulfonylethyl)-1H-indol-5-yl]acetamide]
pIC50 [1]: 6.00 to 7.00 | pIC50 (human RORγt): 7.00 to 8.00

Cc1ccc(C(NC(=O)Cc2ccc3c(ccn3S(C)(=O)=O)c2)c2ccc(C)o2)c(N2CCCCC2)c1 (stereo not shown) [Cpd. 106, 2-(1-methanesulfonyl-1H-indol-5-yl)-N-{[4-methyl-2-(piperidin-1-yl)phenyl](5-methylfuran-2-yl)methyl}acetamide]
pIC50 [1]: 6.00 to 7.00 | pIC50 (human RORγt): 7.00 to 8.00

Cc1ccc(C(NC(=O)C2(c3ccc4c(c3)CCN4)CC2)c2ccc(C)o2)c(C)c1 (stereo not shown) [Cpd. 142, 1-(2,3-dihydro-1H-indol-5-yl)-N-[(2,4-dimethylphenyl)(5-methylfuran-2-yl)methyl]cyclopropane-1-carboxamide]
pIC50 (human RORγt): 7.00 to 8.00 | melting point: 57 °C

Cc1ccc(C(NC(=O)Cc2ccc3c(c2)CS(=O)(=O)N3)c2ccc(C)o2)c(Br)c1 (stereo not shown) [Cpd. 28, N-[(2-bromo-4-methylphenyl)(5-methylfuran-2-yl)methyl]-2-(2,2-dioxo-1,3-dihydro-2,1-benzothiazol-5-yl)acetamide]
pIC50 [1]: 5.00 to 6.00 | pIC50 (human RORγt): 6.00 to 7.00

Cc1ccc(C(NC(=O)Cc2ccc3c(c2)C(=NN)C(=O)N3)c2ccc(C)o2)c(N2CCCCC2)c1 (stereo not shown) [Cpd. 37, 2-(3-hydrazinylidene-2-oxo-2,3-dihydro-1H-indol-5-yl)-N-{[4-methyl-2-(piperidin-1-yl)phenyl](5-methylfuran-2-yl)methyl}acetamide]
pIC50 [1]: 6.00 to 7.00 | pIC50 (human RORγt): 7.00 to 8.00

Cc1ccc(C(NC(=O)Cc2cc(C)c3c(c2)CC(=O)N3)c2ccc(C)o2)c(N2CCCCC2)c1 (stereo not shown) [Cpd. 54, N-{[4-methyl-2-(piperidin-1-yl)phenyl](5-methylfuran-2-yl)methyl}-2-(7-methyl-2-oxo-2,3-dihydro-1H-indol-5-yl)acetamide]
pIC50 [1]: > 7.00 | pIC50 (human RORγt): 7.00 to 8.00

Cc1ccc(C(NC(=O)Cc2ccc3c(c2)OCC(=O)N3)c2ccc(C)o2)c(Br)c1 (stereo not shown) [Cpd. 31, N-[(2-bromo-4-methylphenyl)(5-methylfuran-2-yl)methyl]-2-(3-oxo-3,4-dihydro-2H-1,4-benzoxazin-7-yl)acetamide]
pIC50 [1]: 6.00 to 7.00 | pIC50 (human RORγt): 7.00 to 8.00

Cc1ccc(C(NC(=O)C2(c3ccc4c(c3)CN(S(C)(=O)=O)C4)CC2)c2ccc(C)o2)c(N2CCCC2)c1 (stereo not shown) [Cpd. 73, 1-(2-methanesulfonyl-2,3-dihydro-1H-isoindol-5-yl)-N-{[4-methyl-2-(pyrrolidin-1-yl)phenyl](5-methylfuran-2-yl)methyl}cyclopropane-1-carboxamide]
pIC50 [1]: > 7.00 | pIC50 (human RORγt): 7.00 to 8.00

Cc1ccc(C(NC(=O)Cc2ccc3c(c2)CCC(=O)N3)c2ccc(C)o2)c(Br)c1 (stereo not shown) [Cpd. 36, N-[(2-bromo-4-methylphenyl)(5-methylfuran-2-yl)methyl]-2-(2-oxo-1,2,3,4-tetrahydroquinolin-6-yl)acetamide]
pIC50 [1]: 6.00 to 7.00 | pIC50 (human RORγt): 6.00 to 7.00

Cc1ccc(C(NC(=O)Cc2ccc3c(c2)/C(=N/N)C(=O)N3)c2ccc(C)o2)c(N2CCCCC2)c1 (stereo not shown) [Cpd. 84, 2-[(3Z)-3-hydrazinylidene-2-oxo-2,3-dihydro-1H-indol-5-yl]-N-{[4-methyl-2-(piperidin-1-yl)phenyl](5-methylfuran-2-yl)methyl}acetamide]
pIC50 [1]: 6.00 to 7.00

Cc1ccc(C(NC(=O)Cc2ccc3c(c2)C(C)C(=O)N3)c2ccc(C)o2)c(N2CCCCC2)c1 (stereo not shown) [Cpd. 49, N-{[4-methyl-2-(piperidin-1-yl)phenyl](5-methylfuran-2-yl)methyl}-2-(3-methyl-2-oxo-2,3-dihydro-1H-indol-5-yl)acetamide]
pIC50 (human RORγt): 7.00 to 8.00 | melting point: 102 °C

COc1ccc(C(NC(=O)C2(c3ccc4c(c3)OCS(=O)(=O)N4)CC2)c2ccc(C)o2)c(Br)c1 (stereo not shown) (as salt: HCl) [Cpd. 147, N-[(2-bromo-4-methoxyphenyl)(5-methylfuran-2-yl)methyl]-1-(2,2-dioxo-1,3-dihydro-4,2,1-benzoxathiazin-6-yl)cyclopropane-1-carboxamide]
melting point: 115 °C

Cc1ccc(C(NC(=O)C2(c3ccc4c(c3)OCS(=O)(=O)N4)CC2)c2ccc(Cl)o2)c(C)c1 (stereo not shown) (as salt: HCl) [Cpd. 149, N-[(5-chlorofuran-2-yl)(2,4-dimethylphenyl)methyl]-1-(2,2-dioxo-1,3-dihydro-4,2,1-benzoxathiazin-6-yl)cyclopropane-1-carboxamide]
melting point: 102 °C

Cc1ccc(C(NC(=O)C2(c3cc(F)c4c(c3)CC(=O)N4)CC2)c2ccc(C)o2)c(C)c1 (stereo not shown) (as salt: HCl) [Cpd. 158, N-[(2,4-dimethylphenyl)(5-methylfuran-2-yl)methyl]-1-(7-fluoro-2-oxo-2,3-dihydro-1H-indol-5-yl)cyclopropane-1-carboxamide]
melting point: 102 °C
